Source: patent publication US12337010B2, “Compositions and methods of treatment using nicotinamide mononucleotide” (Washington University, priority 2017, dated 2025)
Each block holds one compound with its values, some of them ahead of it.

Key:
[1] = molecular target: T1, Slc12a8 (Mus musculus, UniProt Q8VI23); assay: Radiolabeled NMN uptake in Slc12a8-OE and control NIH3T3 cells; type: cell-based; settings: 25 μM, 37° C., 3 and 5 min time points, Slc12a8-OE cells compared to control cells
T1 construct: NIH3T3 cells were transfected with 5 μg of pCXN2 carrying the full-length Slc12a8 cDNA (Slc12a8-OE); expressed in transfected cells
T1 sequence (Q8VI23 1-705): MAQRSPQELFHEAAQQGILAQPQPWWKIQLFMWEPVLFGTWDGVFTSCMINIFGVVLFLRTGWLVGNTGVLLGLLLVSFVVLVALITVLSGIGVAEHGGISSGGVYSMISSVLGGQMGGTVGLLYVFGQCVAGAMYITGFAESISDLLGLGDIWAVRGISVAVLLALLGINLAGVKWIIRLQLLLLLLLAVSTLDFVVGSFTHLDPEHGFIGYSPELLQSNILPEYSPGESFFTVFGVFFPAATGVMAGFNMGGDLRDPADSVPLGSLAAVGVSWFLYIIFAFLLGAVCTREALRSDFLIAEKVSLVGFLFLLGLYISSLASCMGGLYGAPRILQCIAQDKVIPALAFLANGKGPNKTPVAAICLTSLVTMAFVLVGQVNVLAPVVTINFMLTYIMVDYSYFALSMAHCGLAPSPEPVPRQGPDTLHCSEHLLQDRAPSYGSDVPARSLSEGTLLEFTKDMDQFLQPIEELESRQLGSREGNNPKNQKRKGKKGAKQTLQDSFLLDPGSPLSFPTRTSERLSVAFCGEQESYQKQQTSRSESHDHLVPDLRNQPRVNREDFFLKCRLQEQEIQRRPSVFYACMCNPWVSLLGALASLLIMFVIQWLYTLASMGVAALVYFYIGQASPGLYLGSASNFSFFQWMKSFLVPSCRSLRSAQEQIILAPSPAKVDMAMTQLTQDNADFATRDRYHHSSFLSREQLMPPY
Experimental: NMN uptake analyses with radiolabeled NMN. Control and Slc12a8-OE NIH3T3 cells were harvested by centrifugation (400×g, 5 min), washed once in HBSS, and incubated at 37° C. in HBSS [pH 7.5] (5×10^6 cells/ml) containing 100 nM 3H-β-Nicotinamide mononucleotide (9 Ci/mmol; Moravek Biochemicals, CA) and unlabeled NMN to make the final concentration 25 μM. At the designated time points (1, 3, 5 and 10 minutes), aliquots of the cells (100 μl) were collected and placed in 1.5-ml microcentrifuge tubes containing silicone-mineral oil (density, 1.015; Sigma-Aldrich) on the top of 2 M potassium hydroxide solution, followed by centrifugation at 16,000×g for 30s. Cells were separated from the buffer and pelleted through the silicone-mineral oil layer. The radioactivity in these cell pellets was determined by a liquid scintillation counter. For calculating Km and Vmax, the same conditions were used as described above, but with various total concentrations of NMN, ranging from 1 μM to 100 μM. At the 4-min time point, 100 μl of cell suspension was collected and pelleted in the same way described above. The radioactivity in cell pellets was determined by a liquid scintillation counter. The radioactivity measured in control NIH3T3 cells was subtracted to calculate Slc12a8-specific NMN uptake in Slc12a8-OE NIH3T3 cells.
Uptake of NMN was measured as described in methods under “NMN uptake analyses with radiolabeled NMN” using 25 μM ^3H-NMN at 37° C. in control and Slc12a8-OE NIH3T3 cells over 10 min in Hanks' buffer [ph7.5] with Mg2+ and Ca2+ (n=12; analyzed by ANOVA with Sidak's test). […] This Km is qualitatively consistent with a detected range of NMN concentrations in mouse plasma and erythrocytes (Revollo, J. R. et al., Cell Metab., 6, 363-375, 2007; Ramsey, K. M., et al., Science, 324, 651-654, 2009; Yamada, K., et al., Anal. Biochem., 352, 282-285, 2006).

[2] = molecular target: T1, Slc12a8; assay: 3H-NMN uptake and displacement in Slc12a8-OE proteoliposomes; type: biochemical; settings: for displacement of 3H-NMN: 150 μM cold compound, 150 nM 3H-NMN, 2 min
Experimental: Proteoliposome experiments. Proteoliposome preparation was carried out as previously described (Bruzzone, S., et al., FASEB J., 15, 10-12, 2001). Briefly, 2×10^7 control or Slc12a8-OE NIH3T3 cells were resuspended in 1 ml of lysis buffer (10 mM Tris-HCl, pH 8.3, 150 mM NaCl, 0.3 M sucrose, protease inhibitor cocktail) and disrupted using a homogenizer. The lysate was centrifuged for 10 min at 3,000×g, and the supernatant was collected and centrifuged for 15 min at 100,000×g. The membrane proteins were solubilized with buffer A (10 mM Tris-HCl, pH 8.3, containing 150 mM NaCl and 0.5% n-octyl β-glucopyranoside). Separately, total lipids were extracted from hemoglobin-free erythrocyte membranes (ghosts) as described previously (Franco, L., et al., FASEB J., 12, 1507-1520, 1998). Total lipids from human erythrocyte membranes (3 mg) were dried and resuspended with 600 μl of solubilized membrane proteins (at approximately 0.7 mg/ml protein concentration). The resulting emulsions were sonicated in ice for 1 min and dialyzed against 5 liters of buffer A without n-octyl-β-glucopyranoside (dialysis buffer) for 24 h at 4° C. Proteoliposomes were recovered, centrifuged for 15 min at 100,000×g, resuspended in 900 μl dialysis buffer and passed 5 times through a 30-gauge needle.
To examine the Na+-dependency of Slc12a8, NaCl was replaced with 150 mM LiCl. All steps were carried out at 4° C. Proteoliposomes (30 μl in triplicate for each condition) were incubated for 2, 5 or 10 min at 25° C. in the presence of […] 3H-β-NMN (specific activity, 9.1 Ci/mmole) with or without label-free nucleotides (NMN, NR, NAD, AMP; NAM or NaMN). At the end of incubations, samples were filtered on a glass fiber paper. Filters were washed with 3 ml of dialysis buffer, dried, and counted for radioactivity.
Proteoliposomes were produced by combining the membrane fractions of Slc12a8-OE or control NIH3T3 cells with the phospholipid bilayers derived from deproteinized erythrocyte plasma membrane as described supra using 22 nM, ^3H-NMN at 25° C. in proteoliposomes produced from plasma membrane fractions of Slc12a8-OE and control NIH3T3 cells in transport buffer (n=3; analyzed by one-way ANOVA with Sidak's multiple comparisons test).
In order to determine substrate specificity of Slc12a8, these Slc12a8-OE proteoliposomes were used for displacement experiments with ^3H-NMN and various cold NAD+-related compounds. Uptake of ^3H-NMN (150 nM, 25° C.) was measured at 2 min in Slc12a8-OE proteoliposomes in the presence of 150 μM competing cold compounds (NMN, NR, NAD, AMP, NaMN, and nicotinamide) in transport buffer (n=3, analyzed by ANOVA with Dunnett's test). […] Data are shown as percentages of ^3H-NMN uptake (n=3; IC50 was calculated by non-linear regression analysis).
In these experiments, the sodium ion dependency of Slc12a8 for NMN transport was evaluated using the proteoliposome system.

[3] = tested on: Slc12a8 gene; assay: Microarray gene expression profiling of FK866-treated primary cultures; type: cell-based, mouse
Experimental: Microarray Analysis. Total RNA was isolated from primary hepatocytes, pancreatic islets, and hippocampal neurospheres, treated with 0.1% DMSO (control) or FK866 (200 nM for primary hepatocytes, and 10 nM for pancreatic islets and hippocampal neurospheres). To determine transcriptional changes induced by FK866 treatment, microarray analyses were conducted using the Illumina Mouse Ref 8 whole genome microarrays (version 2). […] All data were analyzed by the R statistical software package.
Slc12a8 was identified in the section of the Venn diagram in FIG. 1 indicated by an arrow. The Slc12a8 gene belongs to the SLC12 gene family of the electroneutral cation-chloride-coupled co-transporters, and the function of the protein encoded by this gene remains unknown (Hebert, S. C., et al., Pflugers Arch. 447, 580-593, 2004).

[4] = tested on: Slc12a8 mRNA expression; assay: Slc12a8 mRNA expression by quantitative RT-PCR in cells and ex vivo small intestine explants; type: cell-based, mouse; settings: FK866 alone; primary hepatocytes, NIH3T3 fibroblasts (24 h), jejunum and ileum explants (4 h)
Experimental: Cell culture and ex vivo small intestine explant culture. […] For Slc12a8 mRNA expression analysis, 2.5×10^5 cells per well were incubated in 6-well plates with DMEM with 1% FBS containing 0.1% DMSO or 100 nM FK866 or 100 nM FK866 plus 100 μM NMN for 24 h. Small intestines from 3-month old B6 male mice were cut into three segments with duodenum/jejunum/ileum length ratios of 1:3:2 (Wang, H. H., et al., Hepatology 45, 998-1006, 2007). […] Cellular and tissue RNA samples were analyzed by quantitative RT-PCR, as described previously (Stein, L. R. & Imai, S., EMBO J., 33, 1321-1340, 2014).
The amounts of adenosine produced were determined by HPLC. […] Silencing efficiencies were evaluated by quantitative RT-PCR.
FIG. 2 illustrates that Slc12a8 is highly expressed in the small intestine and pancreas and moderately in the liver and white adipose tissue of B6 male mice at 3 months of age (n=3 mice). […] Cells were treated with these compounds for 24 h (n=4 mice for hepatocytes treated with DMSO and FK866, and n=3 mice for hepatocytes treated with FK866 and NMN; n=6 for NIH3T3 cells; analyzed using ANOVA with Tukey's test). FIG. 5 illustrates surface and intracellular Slc12a8 protein expression levels were measured by flow cytometry analysis in NIH3T3 cells treated with FK866 or FK866 plus NMN for 48h. […]

Compound: 3H-β-Nicotinamide mononucleotide [^3H-NMN]
uptake of 3H-NMN [1]: significantly enhanced
3H-NMN incorporation ([2]; 22 nM, 25° C., within 2 min, Slc12a8-OE-derived vs control-derived proteoliposomes): significantly higher levels

displacement of 3H-NMN ([2]; 25° C.): very low or negligible displacement
Compound: Nc1ncnc2c1ncn2[C@@H]1O[C@H](COP(=O)(O)O)[C@@H](O)[C@H]1O [AMP, adenosine monophosphate]

Compound: O=C(/C=C/c1cccnc1)NCCCCC1CCN(C(=O)c2ccccc2)CC1 [FK866]
Slc12a8 Z ratio ([3]; hippocampal neurospheres, 10 nM FK866 vs 0.1% DMSO): 4.91
Slc12a8 Z ratio ([3]; pancreatic islets, 10 nM FK866 vs 0.1% DMSO): 1.69
Slc12a8 Z ratio ([3]; primary hepatocytes, 200 nM FK866 vs 0.1% DMSO): 2.06
Slc12a8 expression [4]: induced significantly

effect on uptake of 3H-NMN ([2]; Slc12a8-overexpressing proteoliposomes): able to enhance the uptake
Compound: O=C(O)c1cccnc1 [NA, nicotinic acid]

displacement of 3H-NMN ([2]; 25° C.): very low or negligible displacement
Compound: NC(=O)c1ccc[n+]([C@@H]2O[C@H](COP(=O)([O-])OP(=O)(O)OC[C@H]3O[C@@H](n4cnc5c(N)ncnc54)[C@H](O)[C@@H]3O)[C@@H](O)[C@H]2O)c1 [NAD+]

displacement of 3H-NMN ([2]; 25° C.): ~70%
IC50 ([2]; Slc12a8-OE proteoliposome system): 77.4 ± 10.8 µM
Compound: NC(=O)c1ccc[n+]([C@@H]2O[C@H](CO)[C@@H](O)[C@H]2O)c1 [NR, nicotinamide riboside]

Compound: O=C(O)c1ccc[n+]([C@@H]2O[C@H](COP(=O)(O)O)[C@@H](O)[C@H]2O)c1 [NaMN, nicotinic acid mononucleotide]
displacement of 3H-NMN ([2]; 25° C.): very low or negligible displacement

displacement of 3H-NMN ([2]; 25° C.): very low or negligible displacement
Compound: NC(=O)c1cccnc1 [nicotinamide]
